≈ marks a conversion by molar mass, not a printed value. Where two headings read alike, the source gives them in different places.
How the values were obtained:
[1] = cited from earlier work
[2] = tested on: S. aureus resistant mutants with EF-G (fusA) mutations; assay: microbe, parasite or virus in culture; type: cell-based; conditions: Staphylococcus aureus
Description: (§1) Antimicrobial Susceptibility Tests. Susceptibility testing was performed in biological triplicate, using the micro-dilution broth method as outlined by the Clinical and Laboratory Standards Institute. Bacteria were cultured with cation-adjusted Muller-Hinton broth (Sigma-Aldrich, Cat #90922) in round-bottom 96-well plates (Corning, Cat #3788). Human serum (Ultrafiltrate, unspecified gender, 30K Dalton membrane filtered) was purchased from BioIVT (Hicksville, NY).
(§2) Selection of Resistant Mutants. Resistant mutants were selected via the large inoculum method. Briefly, S. aureus ATCC 29213 (1×10^9 CFU) were plated on 100 mm plates of LB agar containing 4, 2, 1, 0.5, and 0.25 μg/mL.
(§3) Sequencing of fusA. FusA was amplified by colony PCR. Colonies were picked and diluted in 100 μL sterile H2O. PCR reactions are setup by combining MiFi Mix (Bioline, London, UK), 20 μM primer mix [fusA-F2, fusA_seq1, Forward EF-G2, and Reverse EF-G](S. aureus ATCC 29213), template DNA, and H2O. Reactions were performed on C1000 Thermal Cycler (Bio-Rad, Hercules, CA) with the following conditions: 5 minutes denaturation at 95° C., followed by 30 cycles of 20 seconds at 95° C., 20 seconds at 50° C., and either 1 minute (fusA1) or 1.5 minutes (fusA2) at 72° C. A 10 μL portion of the PCR reaction mixture was analyzed by agarose gel to confirm the product. PCR reactions were purified using GeneJET PCR Purification Kit (Thermo Scientific). PCR amplicons were submitted to the Core DNA Sequencing Facility at the University of Illinois at Urbana-Champaign for Sanger sequencing with the following primers to sequence the fusA [fusA2, fusA_seq1, Forward EF-G2, Forward EF-G3, Forward EF-G4]

S. aureus ATCC BAA-1721 = assay: MIC against strain possessing the fusC gene; type: cell-based; conditions: Staphylococcus aureus, ATCCBAA1721
[3] = Pharmacokinetic assessment in mice; type: in vivo, C57BL/6 mice; conditions: mice, 50 mg/kg intraperitoneal, serum, one-compartment model
Description: FIG. 3. A). Pharmacokinetic analysis of fusidic acid and FA-CP. […] The data are illustrated as the mean and represent the average of three independent experiments. The pharmacokinetic parameters illustrated above were calculated with a one-compartment model using a non-linear regression program (Phoenix WinNonlin Version 8.1, Certara USA Inc. Princeton NJ 08540 USA). B). S. aureus ATCC 29213 neutropenic thigh infection burden study. CD-1 mice were first rendered neutropenic with cyclophosphamide. Mice were injected on (Day-4 to Day-2) with 150 mg/kg and on (Day-1) with 100 mg/kg of cyclophosphamide, respectively. […] C). S. aureus (FA-32×-B) neutropenic thigh infection study. CD-1 mice were first rendered neutropenic with cyclophosphamide as described above. […] Drugs were formulated with 5% DMSO, 10% Tween 20, 85% PBS immediately before injection. The data shown as means±s.d. and statistical significance was determined by one-way ANOVA with Tukey's multiple comparisons. NS indicates not significant (P>0.05), **P<0.01, ****P<0.0001.
Pharmacokinetic Assessment of sodium fusidate and FA-CP (25). […] The compounds were formulated in 5% DMSO, 10% Tween 20, and 85% PBS. Mice were treated with sodium fusidate or FA-CP (25) (50 mg/kg) via intraperitoneal injection with three mice per time point (15, 30, 45, 60, 120, and 240 min). At specific time points, mice were sacrificed, blood was collected and centrifuged, and the serum was frozen at −80° C. until analysis. The proteins in a 10 μL aliquot of serum were precipitated by the addition of 50 μL acetonitrile with the addition of 10 μL of 1.6 ug/mL internal standard (sodium fusidate was the internal standard when measuring FA-CP (25) and FA-CP (25) was the internal standard when measuring sodium fusidate). The sample was then vortexed and centrifuged to remove the proteins. Supernatants were analyzed with the QTRAP 5500 LC/MS/MS system (Sciex) in the Metabolomics Laboratory of the Roy J. Carver Biotechnology center, University of Illinois at Urbana-Champaign. Software Analyst 1.6.2 was used for data acquisition and analysis. The 1200 Series HPLC System (Agilent Technologies) includes a degasser, an autosampler and a binary pump. The liquid chromatography separation was performed on an Agilent Zorbax SB-Aq column (4.6 mm×50 mm; 5 μm) with mobile phase A (0.1% formic acid in water) and mobile phase B (0.1% formic acid in acetonitrile). The flow rate was 0.3 mL/min. The linear gradient was as follows: 0-1 min: 95% A; 8-13 min: 0% A; 8.1-18.5 min: 95% A. The autosampler was set at 10° C. The injection volume was 5 μL. Mass spectra were acquired under negative electrospray ionization with a voltage of −4,500 V. The source temperature was 450° C. The curtain gas, ion source gas 1 and ion source gas 2 were 32, 60 and 60 psi, respectively. […] The limit of quantitation of (S/N=10) was 1 nM. Pharmacokinetic parameters were calculated with a one-compartment model using a nonlinear regression program (Phoenix WinNonlin Version 8.1; Certara USA).

[4] = tested on: FA-Resistant strains of S. aureus; assay: MIC against 11 FA-resistant strains generated at 4x-32x the MIC; type: cell-based
Description: as §1, §2, §3

CC(=O)O[C@H]1C[C@@]2(C)[C@@H](C[C@@H](O)[C@H]3[C@@]4(C)CC[C@@H](O)[C@@H](C)[C@@H]4CC[C@@]32C)/C1=C(\CCC=C(C)C)C(=O)O [FA, Fusidic acid]
Half-life in humans ([1]; in vivo): 600 to 840 min
Cmax (drug plasma level) ([1]; patients, front-loading regimen 3 g first day, 1.2 g daily thereafter): greater than 130 μg/mL
MIC ([2]; read-out: MIC for FA, strain FA-32X-1, EF-G H457Y): 128 µg/mL (≈ 248 µM)
MIC ([2]; read-out: MIC for FA, strain FA-32X-2, EF-G T436I): 8 µg/mL (≈ 15.5 µM)
MIC ([2]; read-out: MIC for FA, strain FA-32X-3, EF-G H457Y): 128 µg/mL (≈ 248 µM)
MIC ([2]; read-out: MIC for FA, strain FA-32X-6, EF-G T436I): 16 µg/mL (≈ 31 µM)
MIC ([2]; read-out: MIC for FA, strain FA-32X-7, EF-G H457Y): 128 µg/mL (≈ 248 µM)
MIC ([2]; read-out: MIC for FA, strain FA-32X-8, EF-G H457Y): 128 µg/mL (≈ 248 µM)
MIC ([2]; read-out: MIC for FA, strain FA-32X-10, EF-G H457Y): 128 µg/mL (≈ 248 µM)
MIC ([2]; read-out: MIC for FA, strain FA-32X-12, EF-G H457Y): 128 µg/mL (≈ 248 µM)
MIC ([2]; read-out: MIC for FA, strain FA-32X-13, EF-G H457Y): 128 µg/mL (≈ 248 µM)
MIC ([2]; read-out: MIC for FA, strain FA-32X-14, EF-G H457Y): 128 µg/mL (≈ 248 µM)
MIC ([2]; read-out: MIC for FA, strain FA-32X-15, EF-G H457Y): 128 µg/mL (≈ 248 µM)
MIC ([2]; read-out: MIC for FA, strain FA-32X-19, EF-G H457Y): 128 µg/mL (≈ 248 µM)
MIC ([2]; read-out: MIC for FA, strain FA-32X-20, EF-G H457Y): 128 µg/mL (≈ 248 µM)
MIC (S. aureus ATCC BAA-1721): 8 µg/mL (≈ 15.5 µM)
AUC ([3]; female, C57BL/6, mouse, in vivo, ip, read-out: AUC (converted)): 9360 ng·h/mL
Cmax ([3]; female, C57BL/6, mouse, in vivo, ip, read-out: Cmax): 11100 ng/mL
Tmax ([3]; female, C57BL/6, mouse, in vivo, ip, read-out: Tmax (converted)): 5.4 min
CL_F [3]: 89.0 mL/min/kg
K10_HL [3]: 31.2 min
MIC ([4]; Staphylococcus aureus, strain FA-4X-A, EF-G T385N): 8 µg/mL (≈ 15.5 µM)
MIC ([4]; Staphylococcus aureus, strain FA-4X-B, EF-G T385N): 8 µg/mL (≈ 15.5 µM)
MIC ([4]; Staphylococcus aureus, strain FA-8X-A, EF-G T385N): 8 µg/mL (≈ 15.5 µM)
MIC ([4]; Staphylococcus aureus, strain FA-8X-B, EF-G R464L): 16 µg/mL (≈ 31 µM)
MIC ([4]; Staphylococcus aureus, strain FA-16X-A, EF-G H457Y): 128 µg/mL (≈ 248 µM)
MIC ([4]; Staphylococcus aureus, strain FA-32X-B, EF-G P406L): 32 µg/mL (≈ 61.9 µM)
MIC ([4]; Staphylococcus aureus, strain FA-32X-D, EF-G T436I): 8 µg/mL (≈ 15.5 µM)
MIC ([4]; strain FA-32×-B): 32 µg/mL (≈ 61.9 µM)

Reference: US20240109934A1, “ANTIBIOTICS WITH IMPROVED DRUG RESISTANCE PROFILE” (priority 2021, published 2024)
